Measured values taken from patent US12421225B2, “Heteroaromatic amide derivative and medicament containing the same” (KAKEN PHARMACEUTICAL CO., LTD., priority 2018, dated 2025).

biological target: human Nav1.7 (Homo sapiens (Human), UniProt Q15858); assay: Human Nav1.7 inhibitory activity evaluation (automated patch clamp QPatch16X, HEK293A cells stably expressing human Nav1.7 and human Navβ1); format: cell-based; conditions: human Nav1.7, automated patch clamp
Outline: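 QPatch16X whole-cell recordings at room temperature from HEK293A cells stably expressing human Nav1.7 with Navβ1, CsF-based internal solution, pH 7.4 external, 0.1% DMSO. From −100 mV holding, protocol included a 15 s hold at a potential inactivating ~30-40% of channels; IC50 from inward current at the second −10 mV pulse.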

Chain of human Nav1.7 (Q15858 whole entry): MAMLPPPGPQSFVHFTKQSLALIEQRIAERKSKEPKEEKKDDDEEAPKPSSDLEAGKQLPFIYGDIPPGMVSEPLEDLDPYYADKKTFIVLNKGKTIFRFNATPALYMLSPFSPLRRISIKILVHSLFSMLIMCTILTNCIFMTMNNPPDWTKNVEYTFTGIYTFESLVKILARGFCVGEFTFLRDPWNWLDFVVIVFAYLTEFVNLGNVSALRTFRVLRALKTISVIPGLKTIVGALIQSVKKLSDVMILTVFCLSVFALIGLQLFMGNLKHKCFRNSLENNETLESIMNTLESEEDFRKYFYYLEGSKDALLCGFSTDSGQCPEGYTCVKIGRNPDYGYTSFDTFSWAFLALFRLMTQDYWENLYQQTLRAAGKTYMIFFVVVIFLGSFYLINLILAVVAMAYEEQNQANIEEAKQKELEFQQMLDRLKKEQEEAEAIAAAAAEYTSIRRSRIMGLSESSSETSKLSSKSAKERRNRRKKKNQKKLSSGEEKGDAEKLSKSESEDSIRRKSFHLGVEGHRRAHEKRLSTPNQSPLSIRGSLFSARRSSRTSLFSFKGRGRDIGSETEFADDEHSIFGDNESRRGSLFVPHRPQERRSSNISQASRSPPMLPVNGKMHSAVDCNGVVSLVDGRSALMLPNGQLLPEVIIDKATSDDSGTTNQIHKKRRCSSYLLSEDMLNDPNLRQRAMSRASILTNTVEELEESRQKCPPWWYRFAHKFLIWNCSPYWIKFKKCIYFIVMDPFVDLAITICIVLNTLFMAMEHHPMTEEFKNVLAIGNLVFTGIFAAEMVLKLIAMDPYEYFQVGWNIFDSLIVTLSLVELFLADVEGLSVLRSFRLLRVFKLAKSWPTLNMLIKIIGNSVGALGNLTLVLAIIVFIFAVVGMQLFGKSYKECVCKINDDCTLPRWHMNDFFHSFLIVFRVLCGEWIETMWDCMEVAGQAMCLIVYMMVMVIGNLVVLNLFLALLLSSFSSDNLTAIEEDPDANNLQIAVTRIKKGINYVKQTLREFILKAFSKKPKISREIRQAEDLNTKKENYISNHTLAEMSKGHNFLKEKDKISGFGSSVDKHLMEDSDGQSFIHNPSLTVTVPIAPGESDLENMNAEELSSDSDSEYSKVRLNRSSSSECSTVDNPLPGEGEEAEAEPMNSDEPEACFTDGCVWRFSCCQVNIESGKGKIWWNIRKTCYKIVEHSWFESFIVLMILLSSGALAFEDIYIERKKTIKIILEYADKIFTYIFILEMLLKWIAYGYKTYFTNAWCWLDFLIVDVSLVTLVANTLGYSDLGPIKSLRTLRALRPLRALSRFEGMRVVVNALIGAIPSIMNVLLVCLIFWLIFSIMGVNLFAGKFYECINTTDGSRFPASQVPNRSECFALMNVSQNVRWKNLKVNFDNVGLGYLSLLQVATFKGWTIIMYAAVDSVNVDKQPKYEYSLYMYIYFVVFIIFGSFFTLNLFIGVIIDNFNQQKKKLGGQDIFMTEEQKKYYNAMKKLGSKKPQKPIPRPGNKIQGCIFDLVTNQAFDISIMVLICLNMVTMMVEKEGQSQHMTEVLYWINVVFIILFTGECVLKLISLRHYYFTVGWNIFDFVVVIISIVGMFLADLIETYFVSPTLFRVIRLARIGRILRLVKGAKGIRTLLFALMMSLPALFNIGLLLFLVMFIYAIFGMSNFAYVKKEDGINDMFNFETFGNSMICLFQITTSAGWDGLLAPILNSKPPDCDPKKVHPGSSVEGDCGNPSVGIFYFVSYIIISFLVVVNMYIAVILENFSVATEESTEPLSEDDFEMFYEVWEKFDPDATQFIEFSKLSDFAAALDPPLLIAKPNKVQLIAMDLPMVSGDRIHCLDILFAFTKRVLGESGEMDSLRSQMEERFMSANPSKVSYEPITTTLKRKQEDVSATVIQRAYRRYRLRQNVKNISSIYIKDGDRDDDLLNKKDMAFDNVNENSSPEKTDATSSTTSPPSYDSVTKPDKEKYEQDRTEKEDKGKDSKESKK
Chain of human Nav1.7 (Q07699 19-218 partner): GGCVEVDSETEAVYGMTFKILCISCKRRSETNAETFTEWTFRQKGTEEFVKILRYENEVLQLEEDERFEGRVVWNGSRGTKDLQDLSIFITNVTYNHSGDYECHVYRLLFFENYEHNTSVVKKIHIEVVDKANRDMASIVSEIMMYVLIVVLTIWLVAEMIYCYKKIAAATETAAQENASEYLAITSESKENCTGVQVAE

Compound | IC50 [nM]
O=C(NC1COc2ccccc2C1)c1cc2n(n1)CCN(S(=O)(=O)c1ccccc1C(F)(F)F)C2 (centres unmarked) [Example 511] | < 10000
Cc1cc(-c2c(C(=O)N[C@H]3COc4ccc(C(F)(F)F)cc4C3)nc3n2CCOC3)[nH]n1 [Example 512] | < 10000
O=C(N[C@H]1COc2ccc(C(F)(F)F)cc2C1)c1nn2c(c1-c1cccc(F)n1)COCC2 [Example 513] | < 1000
O=C(N[C@H]1COc2ccc(Cl)cc2C1)c1nn2c(c1-c1ccccn1)COCC2 [Example 515] | < 1000
CCc1cccc(-c2c(C(=O)N[C@H]3COc4ccc(C#N)cc4C3)nn3c2COCC3)n1 [Example 516] | < 10000
O=C(N[C@H]1COc2ccc(C(F)(F)F)cc2C1)c1nn2c(c1-c1ccc3cccnc3c1)COCC2 [Example 517] | < 10000
O=C(N[C@H]1COc2ccc(C(F)(F)F)cc2C1)c1nn2c(c1-c1cccc(CO)n1)COCC2 [Example 519] | < 10000
O=C(N[C@H]1COc2ccc(C(F)(F)F)cc2C1)c1nn2c(c1-c1cccc(COCC(F)(F)F)n1)COCC2 [Example 520] | < 1000
O=C(N[C@H]1COc2ccc(C(F)(F)F)cc2C1)c1nn2c(c1-c1cccc(CC(F)(F)F)n1)COCC2 [Example 523] | < 1000
Cc1cccc(-c2c(C(=O)N[C@H]3COc4ccc(C(F)(F)F)cc4C3)nn3c2NCCC3)n1 [Example 524] | < 10000
O=C(N[C@H]1COc2ccc(COCC(F)(F)F)cc2C1)c1nn2c(c1-c1ccccn1)NCCC2 [Example 525] | < 10000
O=C(N[C@H]1COc2ccc(C(F)(F)F)cc2C1)c1nn2c(c1-c1cccc(C(O)C(F)(F)F)n1)COCC2 (some centres unmarked) [Example 527] | < 1000
O=C(N[C@H]1COc2ccc(C(F)(F)F)cc2C1)c1nn2c(c1-c1ccccn1)COCCC2 [Example 528] | < 10000
COc1cccc(-c2c(C(=O)N[C@H]3COc4ccc(C(F)(F)F)cc4C3O)nn3c2COCC3)n1 (some centres unmarked) [Example 529] | < 1000
O=C(N[C@H]1COc2ccc(C(F)(F)F)cc2C1)c1cc2n(n1)CCC(COCC1(F)CC1)O2 (some centres unmarked) [Example 533] | < 1000
O=C(N[C@H]1COc2ccc(C(F)(F)F)cc2C1OCC(F)(F)F)c1cc2n(n1)CCC(C(F)F)O2 (some centres unmarked) [Example 536] | < 10000
O=C(N[C@H]1COc2cc(C(F)(F)F)nn2C1)c1cc2n(n1)CCC(c1ccccc1F)O2 (some centres unmarked) [Example 537] | < 10000
O=C(N[C@H]1COc2ccc(C(F)(F)F)cc2C1)c1cc2n(n1)CC(COCC1CC1)CO2 (some centres unmarked) [Example 539] | < 10000
O=C(NCC1COc2ccc(Cl)cc2C1)c1cc2n(n1)CCC(COC(F)(F)F)O2 (centres unmarked) [Example 542] | < 10000
CCC1(O)c2cc(C(F)(F)F)ccc2OC[C@@H]1NC(=O)c1cc2n(n1)CCC(C(F)F)O2 (some centres unmarked) [Example 544] | < 10000
O=C(N[C@H]1COc2ccc(COCC(F)(F)F)cc2C1)c1cc2n(n1)CCC1(CC1)CO2 [Example 545] | < 1000
O=C(N[C@H]1COc2ccc(C(F)(F)F)cc2C1OC(F)(F)F)c1cc2n(n1)CCC(C(F)F)O2 (some centres unmarked) [Example 546] | < 1000
O=C(N[C@H]1COc2ccc(Cl)cc2C1)c1cn2c(n1)CC(CNCC(F)(F)F)CO2 (some centres unmarked) [Example 548] | < 10000
CCC1CCn2nc(C(=O)N[C@H]3COc4ccc(C(F)(F)F)nc4C3)cc2O1 (some centres unmarked) [Example 549] | < 10000
O=C(N[C@H]1COc2ccc(C(F)(F)F)nc2C1)c1cc2n(n1)CCC(c1ccccc1F)O2 (some centres unmarked) [Example 550] | < 1000

Compound | IC50 [nM]
COc1c(C(F)(F)F)ccc2c1C[C@@H](NC(=O)c1cc3n(n1)CCC(C(F)F)O3)CO2 (some centres unmarked) [Example 551] | < 10000
N#CC1(COCC2CCn3nc(C(=O)N[C@H]4COc5ccc(C(F)(F)F)cc5C4)cc3O2)CC1 (some centres unmarked) [Example 553] | < 10000
N#Cc1ccc2c(c1)C[C@@H](NC(=O)c1cc3n(n1)CCC(COCC(F)(F)F)CO3)CO2 (some centres unmarked) [Example 555] | < 1000
O=C(N[C@H]1COc2ccc(CC(F)F)cc2C1)c1cc2n(n1)CCC(COCC(F)(F)F)CO2 (some centres unmarked) [Example 557] | < 1000
O=C(N[C@H]1COc2ccc(C(F)(F)F)cc2C1O)c1cc2n(n1)CCC(COCC1CC1)O2 (some centres unmarked) [Example 558] | < 1000
O=C(N[C@H]1COc2ccc(C(F)(F)F)cc2C1O)c1cc2n(n1)CCC(COCC1CC1)O2 (some centres unmarked) [Example 559] | < 10000
O=C(N[C@H]1COc2ccc(C(F)(F)F)cc2C1O)c1cc2n(n1)CC(COCC1CC1)O2 (some centres unmarked) [Example 560] | < 1000
O=C(N[C@H]1COc2ccc(C(F)(F)F)cc2C1O)c1cc2n(n1)CCC(COCC(F)(F)F)O2 (some centres unmarked) [Example 561] | < 10000
N#Cc1ccc2c(c1)C[C@@H](NC(=O)c1cc3n(n1)CCC(CC(F)(F)F)O3)CO2 (some centres unmarked) [Example 562] | < 10000
O=C(N[C@H]1COc2ccc(CC(F)F)cc2C1)c1cc2n(n1)CC(CC1CCOCC1)O2 (some centres unmarked) [Example 564] | < 10000
N#Cc1ccc2c(c1)C[C@@H](NC(=O)c1cc3n(n1)CC(CC1CCOCC1)O3)CO2 (some centres unmarked) [Example 565] | < 1000
O=C(N[C@H]1COc2ccc(I)cc2C1)c1cc2n(n1)CCC(C(F)F)O2 (some centres unmarked) [Example 566] | < 1000
O=C(N[C@H]1COc2ccc(CC(F)F)cc2C1)c1cc2n(n1)CCC(COCC1(F)CC1)O2 (some centres unmarked) [Example 567] | < 1000
COC1c2cc(C(F)(F)F)ccc2OC[C@@H]1NC(=O)c1cc2n(n1)CC(COCC(F)(F)F)O2 (some centres unmarked) [Example 569] | < 1000
COC1c2cc(C(F)(F)F)ccc2OC[C@@H]1NC(=O)c1cc2n(n1)CCC(COCC(F)(F)F)O2 (some centres unmarked) [Example 570] | < 1000
O=C(NC1COc2ccc(Cl)cc2C1O)c1cc2n(n1)CCC(COCC1CC1)O2 (centres unmarked) [Example 571] | < 10000
N#Cc1ccc2c(c1)C(O)C(NC(=O)c1cc3n(n1)CCC(c1ccccc1F)O3)CO2 (centres unmarked) [Example 573] | < 10000
O=C(N[C@H]1COc2cccc(Cl)c2C1)c1cc2n(n1)CCC(COCC(F)(F)F)O2 (some centres unmarked) [Example 574] | < 1000
Cc1cccc(-c2c(C(=O)N[C@H]3COc4ccc(C(F)(F)F)cc4C3O)nn3c2COCC3)n1 (some centres unmarked) [Example 580] | < 1000
CCc1cccc(-c2c(C(=O)N[C@H]3COc4ccc(C(F)(F)F)cc4C3O)nn3c2COCC3)n1 (some centres unmarked) [Example 581] | < 1000
CCC1(O)CCn2nc(C(=O)N[C@H]3COc4ccc(C(F)(F)F)cc4C3)cc2OC1 (some centres unmarked) [Example 582] | < 10000
O=C(N[C@H]1COc2ccc(C(F)(F)F)cc2C1)c1cc2n(n1)CCC(C1CCOCC1)O2 (some centres unmarked) [Example 583] | < 1000
O=C(N[C@H]1COc2ccc(Cl)cc2C1)c1cc2n(n1)CCC(C1CCOCC1)O2 (some centres unmarked) [Example 584] | < 1000
N#Cc1ccc2c(c1)C[C@@H](NC(=O)c1cc3n(n1)CCC(C1CCOCC1)O3)CO2 (some centres unmarked) [Example 585] | < 10000
O=C(N[C@H]1COc2ccc(CC(F)F)cc2C1)c1cc2n(n1)CCC(C1CCOCC1)O2 (some centres unmarked) [Example 586] | < 1000

Compound | IC50 [nM]
O=C(N[C@H]1COc2ccc(C(F)(F)F)cc2C1O)c1cc2n(n1)CC(CSCC(F)(F)F)O2 (some centres unmarked) [Example 587] | < 10000
O=C(N[C@H]1COc2ccc(C(F)(F)F)cc2C1O)c1cc2n(n1)CC(CCOCC(F)(F)F)O2 (some centres unmarked) [Example 588] | < 1000
O=C(N[C@H]1COc2ccc(C(F)(F)F)cc2C1O)c1cc2n(n1)CC(CCOCC(F)(F)F)O2 (some centres unmarked) [Example 589] | < 10000
O=C(N[C@H]1COc2ccc(C(F)(F)F)cc2C1O)c1cc2n(n1)CC(CCCOCC(F)(F)F)O2 (some centres unmarked) [Example 591] | < 1000
O=C(N[C@H]1COc2ccc(C(F)(F)F)cc2C1O)c1cc2n(n1)CC(CCCOCC(F)(F)F)O2 (some centres unmarked) [Example 592] | < 10000
O=C(N[C@H]1COc2ccc(C(F)(F)F)cc2C1O)c1cc2n(n1)CC(CCOCC1CC1)O2 (some centres unmarked) [Example 595] | < 1000
CCC1CCn2nc(C(=O)N[C@H]3COc4ccc(C(F)(F)F)cc4C3O)cc2O1 (some centres unmarked) [Example 599] | < 1000
O=C(N[C@H]1COc2ccc(COCC(F)(F)F)cc2C1)c1cc2n(n1)CCC(C1CCOCC1)O2 (some centres unmarked) [Example 606] | < 1000
O=C(N[C@H]1COc2ccc(C(F)(F)F)cc2C1O)c1cc2n(n1)CC(CCCOCC(F)F)O2 (some centres unmarked) [Example 607] | < 1000
O=C(N[C@H]1COc2ccc(C(F)(F)F)cc2C1O)c1cc2n(n1)CC(CCCOCC(F)F)O2 (some centres unmarked) [Example 609] | < 10000
O=C(N[C@H]1COc2ccc(Cl)cc2C1)c1cc2n(n1)CCC(C1CCOC1)O2 (some centres unmarked) [Example 611] | < 1000
O=C(N[C@H]1COc2ccc(C(F)(F)F)cc2C1)c1cc2n(n1)CCC(C1CCOC1)O2 (some centres unmarked) [Example 612] | < 10000
O=C(N[C@H]1COc2ccc(C(F)(F)F)cc2C1F)c1cc2n(n1)CCC(C1CCOC1)O2 (some centres unmarked) [Example 613] | < 1000
CC1(COCC2CC2)Cn2nc(C(=O)N[C@H]3COc4ccc(C#N)cc4C3)cc2O1 (some centres unmarked) [Example 618] | < 10000
CC1(COCC2CC2)Cn2nc(C(=O)N[C@H]3COc4ccc(CC(F)F)cc4C3)cc2O1 (some centres unmarked) [Example 619] | < 10000
O=C(N[C@H]1COc2ccc(C(F)(F)F)cc2C1)c1cc2n(n1)CCC(C1COCCO1)O2 (some centres unmarked) [Example 620] | < 1000
COC1c2cc(C(F)(F)F)ccc2OC[C@@H]1NC(=O)c1cc2n(n1)CC(CCOCC(F)(F)F)O2 (some centres unmarked) [Example 621] | < 1000
N#Cc1ccc2c(c1)C[C@@H](NC(=O)c1cc3n(n1)CC(CCC1CCOCC1)O3)CO2 (some centres unmarked) [Example 623] | < 1000
O=C(N[C@H]1COc2ccc(C(F)(F)F)cc2C1F)c1cc2n(n1)CCC(COCC(F)F)O2 (some centres unmarked) [Example 624] | < 1000
O=C(N[C@H]1COc2ccc(C(F)(F)F)cc2C1F)c1cc2n(n1)CCN(CCOC1CCC1)C2 (some centres unmarked) [Example 625] | < 1000
O=C(NC1COc2ccc(F)c(F)c2C1)c1cc2n(n1)CCC(C(F)(F)F)O2 (centres unmarked) [Example 626] | < 10000
O=C(NC1COc2ccc(F)c(F)c2C1)c1cc2n(n1)CCC(COCC(F)(F)F)O2 (centres unmarked) [Example 627] | < 10000
O=C(NC1COc2ccc(F)c(F)c2C1)c1cc2n(n1)CC(CCCOCC(F)(F)F)O2 (centres unmarked) [Example 628] | < 1000
O=C(NC1COc2ccc(F)c(F)c2C1)c1cc2n(n1)CC(CCOCC(F)(F)F)O2 (centres unmarked) [Example 629] | < 1000
